For assay [1], the target named is Glutamate NMDA receptor; Grin1/Grin2b (Rattus norvegicus, UniProt P35439+Q00960). The assay can be described thus: Binding affinity against NR1A/2B receptor in rat brains by [3H]ifenprodil displacement. The format is tissue-based, Brain.
The subject of assay [2] is Rattus norvegicus. Put plainly: In vivo minimum effective dose for anti-Parkinsonian activity in 6-OHDA rat model upon p.o. administration; Not active. Format: functional.
In assay [3] the test system is Rattus norvegicus. The assay can be described thus: In vivo minimum effective dose inhibition of neuropathic pain (formalin test) upon p.o. administration; Not active. Format: functional, organism-based.
The subject of assay [4] is Rattus norvegicus. The assay can be described thus: Minimum effective dose required to measure neuropathic pain (In vivo) by formalin test upon p.o. […] in rat. The format is functional. Particulars: po, read-out: MED.
In assay [5] the test system is Rattus norvegicus. The assay can be described thus: Minimum effective dose required to measure anti-parkinson's activity (In vivo) upon p.o. […] in rat. The format is functional. The note with it: po, read-out: MED.
A short description of assay [6]: Binding affinity against NR1A/2B receptor using [3H]-ifenprodil radioligand in native rat brains; NA means not active.

The source made the active and inactive calls. No cut-off for these calls is given here.

Chain of Glutamate NMDA receptor; Grin1/Grin2b (Q00960 whole entry, other chains not shown): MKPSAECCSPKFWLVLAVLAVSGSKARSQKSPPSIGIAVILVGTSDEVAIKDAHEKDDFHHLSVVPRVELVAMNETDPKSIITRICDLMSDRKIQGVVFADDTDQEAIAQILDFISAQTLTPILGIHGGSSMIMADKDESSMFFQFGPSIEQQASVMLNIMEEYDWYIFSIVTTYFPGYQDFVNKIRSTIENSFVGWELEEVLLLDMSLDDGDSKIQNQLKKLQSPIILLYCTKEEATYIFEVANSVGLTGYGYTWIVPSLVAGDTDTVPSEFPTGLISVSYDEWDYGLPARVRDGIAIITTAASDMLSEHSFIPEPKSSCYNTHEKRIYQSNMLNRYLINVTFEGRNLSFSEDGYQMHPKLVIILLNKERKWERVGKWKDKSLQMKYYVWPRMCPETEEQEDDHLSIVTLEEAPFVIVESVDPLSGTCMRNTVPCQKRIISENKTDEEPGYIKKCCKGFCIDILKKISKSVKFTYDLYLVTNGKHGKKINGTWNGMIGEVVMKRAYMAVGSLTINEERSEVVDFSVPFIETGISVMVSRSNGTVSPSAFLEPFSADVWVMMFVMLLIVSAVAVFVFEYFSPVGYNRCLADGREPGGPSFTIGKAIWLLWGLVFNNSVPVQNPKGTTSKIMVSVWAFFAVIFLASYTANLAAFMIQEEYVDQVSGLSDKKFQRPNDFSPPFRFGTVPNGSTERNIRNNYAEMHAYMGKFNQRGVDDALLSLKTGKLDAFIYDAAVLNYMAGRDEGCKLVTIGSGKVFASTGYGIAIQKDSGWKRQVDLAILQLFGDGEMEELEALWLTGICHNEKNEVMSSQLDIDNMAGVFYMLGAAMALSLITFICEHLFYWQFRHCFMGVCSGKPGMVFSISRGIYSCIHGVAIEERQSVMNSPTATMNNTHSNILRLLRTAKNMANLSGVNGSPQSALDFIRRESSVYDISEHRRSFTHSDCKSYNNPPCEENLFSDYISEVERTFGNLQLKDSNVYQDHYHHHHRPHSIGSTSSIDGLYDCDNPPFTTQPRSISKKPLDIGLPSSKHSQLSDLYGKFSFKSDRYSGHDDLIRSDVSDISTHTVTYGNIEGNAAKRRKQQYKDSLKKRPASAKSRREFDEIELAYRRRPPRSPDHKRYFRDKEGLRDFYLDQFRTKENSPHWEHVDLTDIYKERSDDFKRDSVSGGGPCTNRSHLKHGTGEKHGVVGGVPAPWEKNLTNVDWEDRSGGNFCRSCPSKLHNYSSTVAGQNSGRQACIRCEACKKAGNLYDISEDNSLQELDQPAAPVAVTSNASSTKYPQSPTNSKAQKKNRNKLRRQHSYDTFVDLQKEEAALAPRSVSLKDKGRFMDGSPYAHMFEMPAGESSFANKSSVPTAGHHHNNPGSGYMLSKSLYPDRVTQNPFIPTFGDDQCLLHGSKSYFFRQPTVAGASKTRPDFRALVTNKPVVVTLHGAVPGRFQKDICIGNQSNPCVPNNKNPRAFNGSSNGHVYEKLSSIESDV

For the molecule `CC1CC(Cc2ccc(F)cc2)CC(C)N1CC#Cc1ccc2[nH]c(=O)[nH]c2c1` (stereo not drawn), in assay [1], the IC50 (commonly the concentration needed to halve the response being measured) turned out to be 157 nM. That is a sub-micromolar value.

In assay [1], `Oc1nc2ccc(C#CCN3CCC(O)(Cc4ccc(F)cc4)CC3)cc2s1` registered a concentration for half-maximal inhibition (IC50) of 24 nM. The MED entry in assay [2] and in assay [3] was “inactive” each time.

As for `Oc1nc2c(C#CCN3CCC(Cc4ccc(F)cc4)CC3)cccc2[nH]1`, the MED result in assay [2] and in assay [3] was “inactive” in each case.

With `Oc1nc2cc(C#CCN3CCC(Cc4ccc(F)cc4)CC3)ccc2[nH]1`, the minimal effective dose in assay [2] (po, read-out: MED) was determined as 10 mg/kg; in assay [4], 10 mg/kg.

Take `O=c1[nH]c2ccc(C#CCN3CCC(=Cc4ccc(F)cc4)CC3)cc2[nH]1`: the IC50 in assay [1] was determined as 142 nM.

On to `CC1CC(Cc2ccc(F)cc2)CCN1CC#Cc1ccc2[nH]c(=O)[nH]c2c1` (stereo not drawn), for which the half-maximal inhibitory concentration (IC50) in assay [1] stood at 104 nM.

Regarding `Cc1cc2[nH]c(=O)[nH]c2cc1C#CCN1CCC(Cc2ccc(F)cc2)CC1`, the IC50 in assay [1] was determined as 4 nM.

The molecule `Fc1ccc(CC2CCN(CC#Cc3ccc4[nH]c(=S)[nH]c4c3)CC2)cc1` showed a half-inhibitory concentration (IC50) in assay [1] of 19 nM. This IC50 is about 4.8-fold higher than that of the molecule before.

Regarding `Oc1nc2cc(C#CCN3CCC(Cc4ccc(F)cc4)CC3)c[nH]c-2n1`, the MED entry in assay [2] and in assay [3] was “inactive” throughout.

On to `CC1CC(Cc2ccc(F)cc2)CCN1CC#Cc1ccc2[nH]c(O)nc2c1` (stereo not drawn), for which the MED entry in assay [2] and in assay [3] was “inactive” each time.

Consider `O=c1[nH]c2cccc(C#CCN3CCC(Cc4ccc(F)cc4)CC3)c2[nH]1`, for which the IC50 in assay [1] was found to be 284 nM.

As for `CC(C)(C#Cc1ccc2[nH]c(=O)[nH]c2c1)N1CCC(Cc2ccc(F)cc2)CC1`, the concentration for half-maximal inhibition (IC50) in assay [1] is > 1000 nM.

As to `CC(C)(C#Cc1ccc2[nH]c(O)nc2c1)N1CCC(Cc2ccc(F)cc2)CC1`, the MED entry in assay [2] and in assay [3] was “inactive” throughout.

As for `O=C1Cc2cc(C#CCN3CCC(Cc4ccc(F)cc4)CC3)ccc2N1`, the half-inhibitory concentration (IC50) in assay [1] is 56 nM. Also, the MED entry in assay [2] and in assay [3] was “inactive” each time.

With `O=c1[nH]c2cc(C#CCN3CCC(Cc4ccc(F)cc4)CC3)cnc2[nH]1`, the half-maximal inhibitory concentration (IC50) in assay [1] stood at 2 nM.

Take `COc1cc2[nH]c(O)nc2cc1C#CCN1CCC(Cc2ccc(F)cc2)CC1`: the MED entry in assay [2] and in assay [3] was “inactive” throughout.

On to `Cc1cc2[nH]c(O)nc2cc1C#CCN1CCC(Cc2ccc(F)cc2)CC1`, for which the MED result in assay [2] and in assay [3] was “inactive” in each case.

Turning to `Cc1cc(C#CCN2CCC(Cc3ccc(F)cc3)CC2)cc2[nH]c(O)nc12`, the minimal effective dose in assay [5] is 30 mg/kg. Further, in assay [3], the MED result was “inactive”.

As to `Oc1nc2ccc(C#CCN3CCC(Cc4ccc(F)cc4)CC3)cc2o1`, the MED entry in assay [2] was “inactive”. The minimal effective dose in assay [4] is 30 mg/kg.

As to `Oc1nc2cc(C#CCN3CCC(CCc4ccc(F)cc4)CC3)ccc2[nH]1`, the MED result in assay [2] and in assay [3] was “inactive” each time.

`Oc1nc2cc(C#CCN3CCC(=Cc4ccc(F)cc4)CC3)ccc2[nH]1`: the MED result in assay [2] and in assay [3] was “inactive” throughout.

For the molecule `Cc1c(C#CCN2CCC(Cc3ccc(F)cc3)CC2)cc2nc(O)[nH]c2c1C`, the MED result in assay [2] and in assay [3] was “inactive” each time.

`Cc1cc(C#CCN2CCC(Cc3ccc(F)cc3)CC2)cc2[nH]c(=O)[nH]c12` registered an IC50 in assay [1] of 20 nM.

As for `Oc1nc2cc(C#CCN3CCC(O)(Cc4ccc(F)cc4)CC3)ccc2[nH]1`, in assay [1], the IC50 came to 21 nM. Further, the MED result in assay [2] and in assay [3] was “inactive” in each case.

`COc1cc2[nH]c(=O)[nH]c2cc1C#CCN1CCC(Cc2ccc(F)cc2)CC1`: in assay [1], the IC50 came out at 9 nM.

Turning to `CC1CC(Cc2ccc(F)cc2)CC(C)N1CC#Cc1ccc2[nH]c(O)nc2c1` (stereo not drawn), the MED entry in assay [2] and in assay [3] was “inactive” in each case.

For the molecule `Fc1ccc(CC2CCN(CC#Cc3ccc4[nH]c(S)nc4c3)CC2)cc1`, the MED result in assay [2] and in assay [3] was “inactive” in each case.

`Oc1nc2cc(C#CCN3CCC(Cc4cccc(F)c4)CC3)ccc2[nH]1` had an IC50 in assay [1] of 14 nM. The MED result in assay [2] and in assay [3] was “inactive” throughout.

`CC(C#Cc1ccc2[nH]c(=O)[nH]c2c1)N1CCC(Cc2ccc(F)cc2)CC1` (stereo not drawn) displayed an IC50 in assay [1] of 100 nM. In other words, the sub-micromolar range.

As to `Oc1nc2c(C(F)(F)F)cc(C#CCN3CCC(Cc4ccc(F)cc4)CC3)cc2[nH]1`, the IC50 result in assay [6] was “Not Active”. For the same molecule, the MED entry in assay [2] and in assay [3] was “inactive” throughout.

For `CC(C#Cc1ccc2[nH]c(O)nc2c1)N1CCC(Cc2ccc(F)cc2)CC1` (stereo not drawn), the MED entry in assay [2] and in assay [3] was “inactive” each time.

For `Oc1nc2ccc(C#CCN3CCC(O)(Cc4ccc(F)cc4)CC3)cc2o1`, the MED result in assay [2] was “inactive”. Further, the minimal effective dose in assay [4] worked out at 30 mg/kg.

The values above are taken from ChEMBL document CHEMBL1147596, “Subtype selective NMDA receptor antagonists: evaluation of some novel alkynyl analogues” (Bioorg Med Chem Lett, 2004).
